Results as given in ChEMBL document CHEMBL4130367, “Click chemistry-based synthesis and anticancer activity evaluation of novel C-14 1,2,3-triazole dehydroabietic acid hybrids” (Eur J Med Chem, 2017).

How the values were obtained:
MDA-MB-231 = assay: Cytotoxicity against human MDA-MB-231 cells assessed as reduction in cell viability after 72 hrs by MTT assay; type: functional, cell-based; details: MDA-MB-231, 72 h
PC-3 = assay: Cytotoxicity against human PC3 cells assessed as reduction in cell viability after 72 hrs by MTT assay; type: functional, cell-based; details: PC-3, 72 h
SK-OV-3 = assay: Cytotoxicity against human SKOV3 cells assessed as reduction in cell viability after 72 hrs by MTT assay; type: functional, cell-based; details: SK-OV-3, 72 h
MCF7 = assay: cells; details: Homo sapiens, MCF7, 72 h
Description: Cytotoxicity against human MCF7 cells assessed as reduction in cell viability after 72 hrs by MTT assay

[1] = Octanol-water partition coefficient, log P of the compound; type: physicochemical
NCI/ADR-RES [2] = assay: Growth inhibition of human MCF7/ADR cells at 2.5 to 5 uM after 72 hrs by MTT assay relative to control; type: functional
NCI/ADR-RES [3] = assay: Growth inhibition of human MCF7/ADR cells after 72 hrs by MTT assay; type: functional, cell-based

| SMILES | IC50 (MDA-MB-231) [µM] | IC50 (PC-3) [µM] | IC50 (SK-OV-3) [µM] | IC50 (MCF7) [µM] | logP [1] | growth inhibition (GI) (NCI/ADR-RES [2]) [%] | growth inhibition (GI) (NCI/ADR-RES [3]) |
| --- | --- | --- | --- | --- | --- | --- | --- |
| COC(=O)[C@]1(C)CCC[C@]2(C)c3ccc(C(C)C)c(NC(=O)CCl)c3CC[C@@H]12 | > 100 | 71.2 | 69.7 | 51.6 | – | – | – |
| COC(=O)[C@]1(C)CCC[C@]2(C)c3ccc(C(C)C)c(N)c3CC[C@@H]12 | 24.1 | 25.4 | 6.1 | 31.1 | – | – | – |
| COC(=O)[C@]1(C)CCC[C@]2(C)c3ccc(C(C)C)c(NC(=O)Cn4cc(-c5ccncc5)nn4)c3CC[C@@H]12 | > 100 | > 100 | > 100 | > 100 | 3.91 | – | – |
| COC(=O)[C@]1(C)CCC[C@]2(C)c3ccc(C(C)C)c(NC(=O)Cn4cc(-c5ccccc5OC)nn4)c3CC[C@@H]12 | 1.8 | 2.3 | 1.4 | 1 | 5.21 | – | – |
| COC(=O)[C@]1(C)CCC[C@]2(C)c3ccc(C(C)C)c(NC(=O)Cn4cc(-c5cccc(F)c5)nn4)c3CC[C@@H]12 | > 100 | > 100 | 91.2 | 68.8 | 5.34 | – | – |
| COC(=O)[C@]1(C)CCC[C@]2(C)c3ccc(C(C)C)c(NC(=O)Cn4cc(-c5ccc(-c6ccccc6)cc5)nn4)c3CC[C@@H]12 | 8.9 | 11.1 | 16 | 9.5 | 6.99 | – | – |
| COC(=O)[C@]1(C)CCC[C@]2(C)c3ccc(C(C)C)c(NC(=O)Cn4cc(-c5cccc(NC(C)=O)c5)nn4)c3CC[C@@H]12 | 5.9 | 10.1 | 3.9 | 1.5 | 4.39 | – | – |
| COC(=O)[C@]1(C)CCC[C@]2(C)c3ccc(C(C)C)c(NC(=O)Cn4cc(-c5ccc(OC)cc5)nn4)c3CC[C@@H]12 | 1.8 | 1.9 | 1.4 | 1.4 | 5.28 | >50 | Dose-dependent effect |
| COC(=O)[C@]1(C)CCC[C@]2(C)c3ccc(C(C)C)c(NC(=O)Cn4cc(-c5ccc([N+](=O)[O-])cc5)nn4)c3CC[C@@H]12 | > 100 | > 100 | 77.3 | > 100 | 5.16 | – | – |
| COC(=O)[C@]1(C)CCC[C@]2(C)c3ccc(C(C)C)c(NC(=O)Cn4cc(-c5ccccc5F)nn4)c3CC[C@@H]12 | 10 | 8.7 | 15.2 | 19.4 | 5.36 | – | – |
| CC(C)[C@]12O[C@H]1[C@@H]1O[C@@]13[C@@]1(C)CCC4=C(COC4=O)[C@@H]1C[C@@H]1O[C@@]13C2=O [TRIPTONIDE] | 0.03 | 0.02 | – | 0.03 | – | – | – |
| COC(=O)[C@]1(C)CCC[C@]2(C)c3ccc(C(C)C)c(NC(=O)Cn4cc(C5CC5)nn4)c3CC[C@@H]12 | 16.2 | 12.3 | 19.4 | 24.2 | 4.11 | – | – |
| COC(=O)[C@]1(C)CCC[C@]2(C)c3ccc(C(C)C)c(NC(=O)Cn4cc(-c5ccc6ccccc6c5)nn4)c3CC[C@@H]12 | 27 | 9.1 | 45.3 | 12.1 | 6.38 | – | – |
| COC(=O)[C@]1(C)CCC[C@]2(C)c3ccc(C(C)C)c(NC(=O)Cn4cc(-c5ccccn5)nn4)c3CC[C@@H]12 | > 100 | > 100 | > 100 | > 100 | 4.05 | – | – |
| COC(=O)[C@]1(C)CCC[C@]2(C)c3ccc(C(C)C)c(NC(=O)Cn4cc(-c5cccnc5)nn4)c3CC[C@@H]12 | 41.9 | 30 | > 100 | > 100 | 4.13 | – | – |
| O=c1[nH]cc(F)c(=O)[nH]1 [FLUOROURACIL] | 24.5 | 13.7 | 20.8 | 5.2 | – | – | – |
| CCOC(=O)c1cn(CC(=O)Nc2c(C(C)C)ccc3c2CC[C@H]2[C@](C)(C(=O)OC)CCC[C@]32C)nn1 | 21.3 | 15.4 | 22.9 | 16.1 | 3.97 | – | – |
| COC(=O)[C@]1(C)CCC[C@]2(C)c3ccc(C(C)C)c(NC(=O)Cn4cc(-c5ccc(OC(F)(F)F)cc5)nn4)c3CC[C@@H]12 | 23.4 | 12.1 | 20.3 | 9.2 | 6.17 | – | – |
| COC(=O)[C@]1(C)CCC[C@]2(C)c3ccc(C(C)C)c(NC(=O)Cn4cc(-c5cccc([N+](=O)[O-])c5)nn4)c3CC[C@@H]12 | 87.5 | > 100 | > 100 | 91.1 | 5.13 | – | – |
| COC(=O)c1nnn(CC(=O)Nc2c(C(C)C)ccc3c2CC[C@H]2[C@](C)(C(=O)OC)CCC[C@]32C)c1C(=O)OC | 8.2 | 49 | 25.3 | 15.6 | 3.67 | – | – |
| COC(=O)[C@]1(C)CCC[C@]2(C)c3ccc(C(C)C)c(NC(=O)Cn4cc(CNc5nc(Cl)nc(Cl)n5)nn4)c3CC[C@@H]12 | > 100 | > 100 | 92.1 | > 100 | 5.12 | – | – |
| COC(=O)[C@]1(C)CCC[C@]2(C)c3ccc(C(C)C)c(NC(=O)Cn4cc(-c5cccc(OC)c5)nn4)c3CC[C@@H]12 | 1.4 | 1.1 | 0.9 | 0.8 | 5.23 | >50 | Dose-dependent effect |
| COC(=O)[C@]1(C)CCC[C@]2(C)c3ccc(C(C)C)c(NC(=O)Cn4cc(Cc5ccccc5)nn4)c3CC[C@@H]12 | 31.9 | > 100 | 59.4 | > 100 | 5.72 | – | – |
| COC(=O)[C@]1(C)CCC[C@]2(C)c3ccc(C(C)C)c(NC(=O)Cn4cc(-c5cccs5)nn4)c3CC[C@@H]12 | 57.1 | > 100 | > 100 | > 100 | 4.98 | – | – |
| COC(=O)[C@]1(C)CCC[C@]2(C)c3ccc(C(C)C)c(NC(=O)Cn4cc([Si](C)(C)C)nn4)c3CC[C@@H]12 | > 100 | 94.3 | 65.2 | > 100 | 6.04 | – | – |
| COC(=O)[C@]1(C)CCC[C@]2(C)c3ccc(C(C)C)c(NC(=O)Cn4cc(CBr)nn4)c3CC[C@@H]12 | 60 | > 100 | > 100 | > 100 | 4.47 | – | – |
| COC(=O)[C@]1(C)CCC[C@]2(C)c3ccc(C(C)C)c(NC(=O)Cn4cc(-c5cc(OC)cc(OC)c5)nn4)c3CC[C@@H]12 | 1.4 | 5.2 | 3.3 | 8.9 | 5.24 | – | – |
| COC(=O)[C@]1(C)CCC[C@]2(C)c3ccc(C(C)C)c(NC(=O)Cn4cc(-c5ccc(F)cc5)nn4)c3CC[C@@H]12 | 1 | 2.6 | 1.8 | 1.9 | 5.31 | – | – |
| COC(=O)[C@]1(C)CCC[C@]2(C)c3ccc(C(C)C)c(NC(=O)CN=[N+]=[N-])c3CC[C@@H]12 | 60.7 | > 100 | > 100 | 52.1 | – | – | – |
| COC(=O)[C@]1(C)CCC[C@]2(C)c3ccc(C(C)C)c(NC(=O)Cn4cc(-c5ccccc5)nn4)c3CC[C@@H]12 | 3 | 3.4 | 4.8 | 3.7 | 5.2 | – | – |
